Experimental data published in patent publication US20240059703A1 (AMGEN INC., priority 2021, published 2024).

Experiments:
[1] = tested on: A549 (human lung carcinoma) cells; assay: Cell Viability Assay (CellTiter-Glo), A549; assay type: cell-based
How it was run: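 RPMI 1640/10% FBS; seed 1.67E+04 cells/mL, o/n 37° C., 5% CO2; serial-dilution cmpd 72 h; CellTiter-Glo luminescence vs DMSO; 4-parameter logistic fit → IC50.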

[2] = tested on: MIA PaCa-2 (human pancreatic carcinoma) cells; assay: Cell Viability Assay (CellTiter-Glo), MIA PaCa-2; assay type: cell-based
Experimental: Serially-diluted compound or DMSO was added to the cells, and plates were incubated at 37° C., 5% CO2 for 72 h. Cell viability was measured using a CellTiter-Glo® Luminescent Cell Viability Assay kit (Promega) according to the manufacturer's protocol. The luminescence signal of treated samples was normalized to DMSO control, and data were analyzed using a 4-parameter logistic model to calculate IC50 values.

KRAS G12C = KRAS G12C (Homo sapiens (Human), UniProt P01116, C118A/G12C); assay: 2 h coupled exchange assay; assay type: biochemical; settings: Avg 2 h Coupled exchange IC50, 2 h compound pre-incubation
Sequence of KRAS G12C (P01116 other isoform, or with tags, fused parts or gaps G12C/C118A): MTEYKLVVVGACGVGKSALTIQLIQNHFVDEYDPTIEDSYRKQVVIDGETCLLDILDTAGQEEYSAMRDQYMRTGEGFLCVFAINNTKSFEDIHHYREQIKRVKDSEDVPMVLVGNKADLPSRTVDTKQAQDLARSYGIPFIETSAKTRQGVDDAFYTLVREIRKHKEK
Experimental: The term “2 h coupled exchange assay” or “20 h coupled exchange assay” as used herein refers to the assay described in the Section entitled “BIOLOGICAL EVALUATION.”

[3] = SOS-mediated nucleotide exchange

Compound	IC50 ([1]; Homo sapiens, A549, 72 h)	IC50 ([2]; Homo sapiens, MIA PaCa-2, 72 h)	IC50 (KRAS G12C; [3])	IC50 (KRAS G12C)	IC50 ([1]; 72 h)	IC50 ([2]; 72 h)
C=CC(=O)N1CC2(CCN(c3nc4c(c(-c5c(C)ccc6cnn(C)c56)c3C)CCC(C)(C)C4)C2)C1 (single isomer, unassigned) [Example 2-21, (P)-1-(6-(4-(1,6-dimethyl-1H-indazol-7-yl)-3,7,7-trimethyl-5,6,7,8-tetrahydro-2-quinolinyl)-2,6-diazaspiro[3.4]octan-2-yl)-2-propen-1-one]	> 5 µM	441 nM	161 nM			
C=CC(=O)N1CC2(CCN(c3nc4c(c(-c5cc(O)cc6ccccc56)c3C)COC(C)(C)C4)C2)C1 [Example 14-26, 1-(6-(4-(3-hydroxy-1-naphthalenyl)-3,7,7-trimethyl-7,8-dihydro-5H-pyrano[4,3-b]pyridin-2-yl)-2,6-diazaspiro[3.4]octan-2-yl)-2-propen-1-one]	> 5 µM	76 nM		67 nM		
C=CC(=O)N1CC2(CCN(c3nc4c(c(-c5ccccc5C)c3C#N)CC[C@@H](c3scnc3C)C4)C2)C1 (single isomer, unassigned) [Example 23-5]				8 nM	3.79 µM	107 nM
C=CC(=O)N1CC2(CCN(c3nc4c(c(-c5c(F)ccc6[nH]ncc56)c3C)CCN(C(C)C)C4)C2)C1 [Example 18-15, 1-(6-(4-(5-fluoro-1H-indazol-4-yl)-3-methyl-7-(2-propanyl)-5,6,7,8-tetrahydro-1,7-naphthyridin-2-yl)-2,6-diazaspiro[3.4]octan-2-yl)-2-propen-1-one]	> 25 µM	230 nM		720 nM		
C=CC(=O)N1CC2(CCN(c3nc4cc(-c5sc(CO)nc5C)cnc4c(-c4ccccc4Cl)c3C#N)C2)C1 [Example 19-9, 4-(2-chlorophenyl)-7-(2-(hydroxymethyl)-4-methyl-1,3-thiazol-5-yl)-2-(2-(2-propenoyl)-2,6-diazaspiro[3.4]octan-6-yl)-1,5-naphthyridine-3-carbonitrile]	> 5 µM	204 nM		56 nM		
C=CC(=O)N1CC2(CCN(c3nc4ccccc4c(-c4c(C)c(C)cc5[nH]ncc45)c3C#N)C2)C1 [Example 2-6, 4-(5,6-dimethyl-1H-indazol-4-yl)-2-(2-(2-propenoyl)-2,6-diazaspiro[3.4]octan-6-yl)-3-quinolinecarbonitrile]	6.25 µM	237 nM	56 nM			
C=CC(=O)N1CC2(CCN(c3nc4c(c(-c5cccc(C)c5Cl)n3)CCCC4)C2)C1 [Example 1-27, 1-(6-(4-(2-chloro-3-methylphenyl)-5,6,7,8-tetrahydro-2-quinazolinyl)-2,6-diazaspiro[3.4]octan-2-yl)-2-propen-1-one]	20.8 µM	11800 nM	5170 nM			
C=CC(=O)N1CC2(CCN(c3nc4c(c(-c5cc(O)cc6ccccc56)c3C#N)COC(C)(C)C4)C2)C1 (single isomer, unassigned) [Example 13-43, (P)-4-(3-hydroxy-1-naphthalenyl)-7,7-dimethyl-2-(2-(2-propenoyl)-2,6-diazaspiro[3.4]octan-6-yl)-7,8-dihydro-5H-pyrano[4,3-b]pyridine-3-carbonitrile]	> 5 µM	143 nM	16 nM			
C=CC(=O)N1CC2(CCN(c3nc4c(c(-c5ccccc5F)c3C#N)CCN(c3ncc(C)s3)C4)C2)C1 [Example 21-20, 4-(2-fluorophenyl)-7-(5-methyl-1,3-thiazol-2-yl)-2-(2-(2-propenoyl)-2.6-diazaspiro[3.4]octan-6-yl)-5,6,7,8-tetrahydro-1,7-naphthyridine-3-carbonitrile]	9.88 µM	5250 nM		973 nM		
C=CC(=O)N1CC2(CCN(c3nc4c(c(-c5c(C)ccc6[nH]ncc56)c3C#N)CCC(C)(C)C4)C2)C1 (single isomer, unassigned) [Example 1-8, (P)-7,7-dimethyl-4-(5-methyl-1H-indazol-4-yl)-2-(2-(2-propenoyl)-2,6-diazaspiro[3,4]octan-6-yl)-5,6,7,8-tetrahydro-3-quinolinecarbonitrile]	> 5 µM		14 nM			36.4 nM
C=CC(=O)N1CC2(CCN(c3nc4c(c(-c5cc(O)ccc5F)c3C)CCN(c3scnc3C)C4)C2)C1 [Example 18-13, 1-(6-(4-(2-fluoro-5-hydroxyphenyl)-3-methyl-7-(4-methyl-1,3-thiazol-5-yl)-5,6,7,8-tetrahydro-1,7-naphthyridin-2-yl)-2,6-diazaspiro[3.4]octan-2-yl)-2-propen-1-one]	> 5 µM	89 nM		86 nM		
C=CC(=O)N1CC2(CCN(c3nc4c(c(-c5c(N)c(Cl)cc(Cl)c5F)c3C#N)COC(C)(C)C4)C2)C1 [Example 13-154, 4-(2-amino-3,5-dichloro-6-fluorophenyl)-7,7-dimethyl-2-(2-(2-propenoyl)-2,6-diazaspiro[3.4]octan-6-yl)-7,8-dihydro-5H-pyrano[4,3-b]pyridine-3-carbonitrile]	> 5 µM	776 nM	81 nM			
C=CC(=O)N1CC2(CCN(c3nc4c(c(-c5ccc(F)cc5Cl)c3C#N)CO[C@H](c3scnc3C)C4)C2)C1 [Example 23-28, (7S)-4-(2-chloro-4-fluorophenyl)-7-(4-methyl-1,3-thiazol-5-yl)-2-(2-(2-propenoyl)-2,6-diazaspiro[3.4]octan-6-yl)-7,8-dihydro-5H-pyrano[4,3-b]pyridine-3-carbonitrile]	5.68 µM	1400 nM		415 nM		
C=CC(=O)N1CC2(CCN(c3nc4c(c(-c5ccccc5C)c3C#N)CCC(c3scnc3C)=C4)C2)C1 (single isomer, unassigned) [Example 23-23, (M)-4-(2-methylphenyl)-7-(4-methyl-1,3-thiazol-5-yl)-2-(2-(2-propenoyl)-2,6-diazaspiro[3.4]octan-6-yl)-5,6-dihydro-3-quinolinecarbonitrile]	3.37 µM	1080 nM		92 nM		
C=CC(=O)N1CC2(CCN(c3nc4c(c(-c5c(C)c(Cl)cc6cnn(C)c56)c3F)CCN(C3COC3)C4)C2)C1 (atropisomer, axis not shown; (M)) [Example 14-107, (M)-1-(6-(4-(5-chloro-1,6-dimethyl-1H-indazol-7-yl)-3-fluoro-7-(3-oxetanyl)-5,6,7,8-tetrahydro-1,7-naphthyridin-2-yl)-2,6-diazaspiro[3.4]octan-2-yl)-2-propen-1-one]	15.3 µM	30 nM		13 nM		
C=CC(=O)N1CC2(CCN(c3nc4cc(OC)ccc4c(-c4ccccc4Cl)c3C#N)C2)C1 [Example 20-5, 4-(2-chlorophenyl)-7-methoxy-2-(2-(2-propenoyl)-2,6-diazaspiro[3.4]octan-6-yl)-3-quinolinecarbonitrile]	9.11 µM	5510 nM		572 nM		
C=CC(=O)N1CC2(CCN(c3nc4c(c(-c5c(C)ccn6cncc56)c3C#N)C[C@H]3C[C@@H]4C3(C)C)C2)C1 [Example 12-19, (1R,9R)-10,10-dimethyl-6-(7-methylimidazo[1,5-a]pyridin-8-yl)-4-(2-(2-propenoyl)-2,6-diazaspiro[3.4]octan-6-yl)-3-azatricyclo[7.1.1.0^2,7] undeca-2,4,6-triene-5-carbonitrile]	3.75 µM	18 nM	37 nM			
C=CC(=O)N1CC2(CCN(c3nc4cc(-c5scnc5C)cnc4c(-c4cccc(O)c4)c3C#N)C2)C1 [Example 20-21, 4-(3-hydroxyphenyl)-7-(4-methyl-1,3-thiazol-5-yl)-2-(2-(2-propenoyl)-2,6-diazaspiro[3.4]octan-6-yl)-1,5-naphthyridine-3-carbonitrile]	10.8 µM	4970 nM		958 nM		
C=CC(=O)N1CC2(CCN(c3cc4c(c(-c5c(C)ccc6cnn(C)c56)c3C#N)CCC(C)(C)C4)C2)C1 [Example 2-97, 1-(1,6-dimethyl-1H-indazol-7-yl)-6,6-dimethyl-3-(2-(2-propenoyl)-2,6-diazaspiro[3.4]octan-6-yl)-5,6,7,8-tetrahydro-2-naphthalenecarbonitrile]	> 5 µM	207 nM	82 nM			
Cc1ncsc1N1CCc2c(nc(N3CCC4(CN(C(=O)/C=C/CN(C)C)C4)C3)c(C#N)c2-c2ccccc2F)C1 [Example 21-31, 2-(2-((2E)-4-(dimethylamino)-2-butenoyl)-2,6-diazaspiro[3.4]octan-6-yl)-4-(2-fluorophenyl)-7-(4-methyl-1,3-thiazol-5-yl)-5,6,7,8-tetrahydro-1,7-naphthyridine-3-carbonitrile]	> 5 µM	738 nM		641 nM		
C=CC(=O)N1CC2(CCN(c3nc4cc(-c5scnc5C)cnc4c(-c4ccccc4Cl)c3C#N)C2)C1 (single isomer, unassigned) [Example 20-9, (P)-4-(2-chlorophenyl)-7-(4-methyl-1,3-thiazol-5-yl)-2-(2-(2-propenoyl)-2,6-diazaspiro[3.4]octan-6-yl)-1,5-naphthyridine-3-carbonitrile]				42 nM	3.19 µM	200 nM
C=CC(=O)N1CC2(CCN(c3nc4c(c(-c5cccc6cc(O)ccc56)n3)CCCC4)C2)C1 [Example 1-21, 1-(6-(4-(6-hydroxy-1-naphthalenyl)-5,6,7,8-tetrahydro-2-quinazolinyl)-2,6-diazaspiro[3.4]octan-2-yl)-2-propen-1-one]	> 5 µM	> 5000 nM	435 nM			
